The values that follow come from patent US20100022531A1, “NOVEL COMPOUNDS AS P2X7 MODULATORS AND USES THEREOF” (RENOVIS, INC., priority 2005, published 2010).

Each structure is given as a SMILES string.

For the first test, the target named is T1, P2X7 receptor (Homo sapiens, UniProt Q99572).
T1 construct: host or cells: THP-1 cells differentiated with LPS and IFN-γ
T1 sequence (Q99572 1-595): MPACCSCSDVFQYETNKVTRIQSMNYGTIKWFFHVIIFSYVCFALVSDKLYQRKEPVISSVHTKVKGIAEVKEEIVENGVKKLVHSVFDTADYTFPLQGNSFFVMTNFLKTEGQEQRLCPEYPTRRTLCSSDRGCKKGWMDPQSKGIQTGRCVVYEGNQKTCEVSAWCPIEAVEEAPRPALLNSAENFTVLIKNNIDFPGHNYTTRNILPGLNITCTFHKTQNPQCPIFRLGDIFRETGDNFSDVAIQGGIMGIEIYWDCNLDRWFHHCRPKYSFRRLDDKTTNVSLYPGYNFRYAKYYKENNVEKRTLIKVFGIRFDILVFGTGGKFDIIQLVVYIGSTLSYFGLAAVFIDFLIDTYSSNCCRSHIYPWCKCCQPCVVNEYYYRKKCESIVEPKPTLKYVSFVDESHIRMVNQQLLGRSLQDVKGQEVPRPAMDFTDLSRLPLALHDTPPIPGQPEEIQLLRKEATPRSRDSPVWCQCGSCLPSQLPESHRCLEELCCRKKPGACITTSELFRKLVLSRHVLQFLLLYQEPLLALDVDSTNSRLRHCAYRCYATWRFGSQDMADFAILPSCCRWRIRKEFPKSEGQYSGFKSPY
Nature of the test: Alternate method for IL-1β release assay (differentiated THP-1 cells, BzATP-stimulated, ELISA). The format is cell-based. To be noted: P2X7; 0.1 μM compound (symbols + to ++++); read-out: IL-1β % inhib @ 0.1 μM. A digest of the protocol: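 After 16 h differentiation with 100 ng/mL LPS and 100 ng/mL IFN-γ plus a further 2 h LPS priming, THP-1 cells were pretreated 30 min with compound, then stimulated with 250 uM BzATP (final) for 45 min. Supernatant IL-1β measured by ELISA; percent inhibition from background-adjusted levels versus untreated cells.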
Background: In an ELISA, binding on a coated surface is turned into a signal by an enzyme label.
On to `c1cc(CN2CCc3c(ncnc3NCC34CC5CC(CC(C5)C3)C4)C2)c2c(c1)OCO2` [Compound 207], for which the inhibition at 0.1 µM was above 75%.

Staying with this test, now noted: P2X7; 0.3 μM compound (asterisk symbols); read-out: IL-1β % inhib @ 0.3 μM.
On to `CC(CN1CCc2c(ncnc2NCC23CC4CC(CC(C4)C2)C3)C1)c1ccccc1` (stereo not shown) [Compound 165], for which the inhibition at 0.3 µM was in the range of 0 to 25%.
The same measure, in the same setting: under `CCCN1CCc2c(ncnc2NCC23CC4CC(CC(C4)C2)C3)C1` [Compound 166] stands 0 to 25%; under `c1nc2c(c(NCC34CC5CC(CC(C5)C3)C4)n1)CCN(CC1CCCCC1)C2` [Compound 167], above 75%.
The same measure, in the same setting: under `c1nc2c(c(NCC34CC5CC(CC(C5)C3)C4)n1)CCN(CC1CC1)C2` [Compound 168] stands 0 to 25%; under `CCCCCN1CCc2c(ncnc2NCC23CC4CC(CC(C4)C2)C3)C1` [Compound 169], above 75%; under `c1ccc(CCCN2CCc3c(ncnc3NCC34CC5CC(CC(C5)C3)C4)C2)cc1` [Compound 170], 0 to 25%.
Still for that read-out and setting: in the case of `COc1ccc(CN2CCc3c(ncnc3NCC34CC5CC(CC(C5)C3)C4)C2)cc1` [Compound 173] it was 0 to 25%.
In the case of `c1nc2c(c(NCC34CC5CC(CC(C5)C3)C4)n1)CCN(Cc1ccc3c(c1)OCO3)C2` [Compound 175], the inhibition at 0.3 µM was in the range of 25 to 50%.
The same measure, in the same setting: under `c1ccc2cc(CN3CCc4c(ncnc4NCC45CC6CC(CC(C6)C4)C5)C3)ccc2c1` [Compound 176] stands 0 to 25%; under `COc1ccc(CN2CCc3c(ncnc3NCC34CC5CC(CC(C5)C3)C4)C2)cc1OC` [Compound 177], 0 to 25%; under `Cc1ccc2occ(CN3CCc4c(ncnc4NCC45CC6CC(CC(C6)C4)C5)C3)c(=O)c2c1` [Compound 178], 25 to 50%.
The same measure, in the same setting: in the case of `c1ccc(Oc2cccc(CN3CCc4c(ncnc4NCC45CC6CC(CC(C6)C4)C5)C3)c2)cc1` [Compound 179] it was 25 to 50%; in that of `Clc1ccc(CN2CCc3c(ncnc3NCC34CC5CC(CC(C5)C3)C4)C2)c(Cl)c1` [Compound 181], 25 to 50%.
Same read-out and setting: under `N#Cc1cccc(CN2CCc3c(ncnc3NCC34CC5CC(CC(C5)C3)C4)C2)c1` [Compound 182] stands above 75%; under `CC1(C)C2CC=C(CN3CCc4c(ncnc4NCC45CC6CC(CC(C6)C4)C5)C3)C1C2` (stereo not shown) [Compound 184], above 75%; under `c1ccc(Oc2ccc(CN3CCc4c(ncnc4NCC45CC6CC(CC(C6)C4)C5)C3)cc2)cc1` [Compound 187], 50 to 75%.
Consider `CCCCN1CCc2c(ncnc2NCC23CC4CC(CC(C4)C2)C3)C1` [Compound 189], for which the inhibition at 0.3 µM is 0 to 25%.
Same read-out and setting: under `CCN1CCc2c(ncnc2NCC23CC4CC(CC(C4)C2)C3)C1` [Compound 190] stands 25 to 50%.
Still for that read-out and setting: in the case of `CCC(CC)CN1CCc2c(ncnc2NCC23CC4CC(CC(C4)C2)C3)C1` [Compound 192] it was above 75%.
Still for that read-out and setting: under `CCCC(C)CN1CCc2c(ncnc2NCC23CC4CC(CC(C4)C2)C3)C1` (stereo not shown) [Compound 193] stands above 75%; under `CC(C)CCN1CCc2c(ncnc2NCC23CC4CC(CC(C4)C2)C3)C1` [Compound 194], 25 to 50%.
For `COc1cccc(CN2CCc3c(ncnc3NCC34CC5CC(CC(C5)C3)C4)C2)c1` [Compound 195], the inhibition at 0.3 µM is above 75%.
On the same count and under the same terms, under `Cc1ccc(CN2CCc3c(ncnc3NCC34CC5CC(CC(C5)C3)C4)C2)cc1C` [Compound 196] stands 0 to 25%; under `COc1ccc(CN2CCc3c(ncnc3NCC34CC5CC(CC(C5)C3)C4)C2)c(Cl)c1OC` [Compound 197], 0 to 25%.

Staying with this test, now noted: P2X7; 0.3 μM compound (symbols * to ****); read-out: IL-1β % inhib @ 0.3 μM.
Take `Brc1cc2c(cc1CN1CCc3c(ncnc3NCC34CC5CC(CC(C5)C3)C4)C1)OCO2` [Compound 198]: the inhibition at 0.3 µM was 0 to 25%.
The same measure, in the same setting: under `COc1cc(CN2CCc3c(ncnc3NCC34CC5CC(CC(C5)C3)C4)C2)ccc1OCc1ccccc1` [Compound 199] stands 0 to 25%; under `c1nc2c(c(NCC34CC5CC(CC(C5)C3)C4)n1)CCN(Cc1ccc3c(c1)OCCO3)C2` [Compound 200], 0 to 25%; under `Clc1ccc(CN2CCc3c(ncnc3NCC34CC5CC(CC(C5)C3)C4)C2)cc1Cl` [Compound 201], 0 to 25%.
Still for that read-out and setting: under `COc1cccc(CN2CCc3c(ncnc3NCC34CC5CC(CC(C5)C3)C4)C2)c1OC` [Compound 202] stands above 75%.
As to `COc1ccc(CN2CCc3c(ncnc3NCC34CC5CC(CC(C5)C3)C4)C2)cc1OCc1ccccc1` [Compound 203], the inhibition at 0.3 µM was in the range of 0 to 25%.
`COc1ccc(CN2CCc3c(ncnc3NCC34CC5CC(CC(C5)C3)C4)C2)cc1O` [Compound 204]: the inhibition at 0.3 µM lay in the range of 0 to 25%.
For `COc1cc(CN2CCc3c(ncnc3NCC34CC5CC(CC(C5)C3)C4)C2)cc(Br)c1OC` [Compound 205], the inhibition at 0.3 µM fell in the range of 0 to 25%.
For `N#Cc1cc(CN2CCc3c(ncnc3NCC34CC5CC(CC(C5)C3)C4)C2)ccc1F` [Compound 206], the inhibition at 0.3 µM was above 75%.
Same read-out and setting: under `Brc1ccc(CN2CCc3c(ncnc3NCC34CC5CC(CC(C5)C3)C4)C2)cc1` [Compound 208] stands above 75%; under `Clc1cccc(CN2CCc3c(ncnc3NCC34CC5CC(CC(C5)C3)C4)C2)c1` [Compound 209], 0 to 25%; under `Clc1cc2c(cc1CN1CCc3c(ncnc3NCC34CC5CC(CC(C5)C3)C4)C1)OCO2` [Compound 210], 0 to 25%.
The same measure, in the same setting: under `CC(C)(C)CN1CCc2c(ncnc2NCC23CC4CC(CC(C4)C2)C3)C1` [Compound 211] stands above 75%; under `Clc1ccc(CN2CCc3c(ncnc3NCC34CC5CC(CC(C5)C3)C4)C2)cc1` [Compound 212], above 75%; under `N#Cc1ccc(CN2CCc3c(ncnc3NCC34CC5CC(CC(C5)C3)C4)C2)cc1` [Compound 214], 25 to 50%.
Take `FC(F)(F)c1ccc(CN2CCc3c(ncnc3NCC34CC5CC(CC(C5)C3)C4)C2)cc1` [Compound 215]: the inhibition at 0.3 µM fell in the range of 0 to 25%.
Still for that read-out and setting: in the case of `Fc1cccc(CN2CCc3c(ncnc3NCC34CC5CC(CC(C5)C3)C4)C2)c1` [Compound 216] it was above 75%; in that of `Cc1cccc(CN2CCc3c(ncnc3NCC34CC5CC(CC(C5)C3)C4)C2)c1` [Compound 217], above 75%.
On the same count and under the same terms, in the case of `Fc1ccc(CN2CCc3c(ncnc3NCC34CC5CC(CC(C5)C3)C4)C2)cc1` [Compound 218] it was above 75%; in that of `COc1ccc(CN2CCc3c(ncnc3NCC34CC5CC(CC(C5)C3)C4)C2)c(OC)c1` [Compound 219], 0 to 25%; in that of `Fc1ccc(CN2CCc3c(ncnc3NCC34CC5CC(CC(C5)C3)C4)C2)c(F)c1` [Compound 220], above 75%.
The same measure, in the same setting: in the case of `c1cc(CN2CCc3c(ncnc3NCC34CC5CC(CC(C5)C3)C4)C2)ccn1` [Compound 221] it was above 75%; in that of `Fc1cc(CN2CCc3c(ncnc3NCC34CC5CC(CC(C5)C3)C4)C2)ccc1Cl` [Compound 222], above 75%.
Take `Fc1cc(C(F)(F)F)ccc1CN1CCc2c(ncnc2NCC23CC4CC(CC(C4)C2)C3)C1` [Compound 223]: the inhibition at 0.3 µM was above 75%.
On the same count and under the same terms, under `Brc1ccc(CN2CCc3c(ncnc3NCC34CC5CC(CC(C5)C3)C4)C2)cn1` [Compound 224] stands 0 to 25%; under `Brc1cccc(CN2CCc3c(ncnc3NCC34CC5CC(CC(C5)C3)C4)C2)c1` [Compound 225], above 75%; under `COc1ccccc1CN1CCc2c(ncnc2NCC23CC4CC(CC(C4)C2)C3)C1` [Compound 226], above 75%.
On the same count and under the same terms, in the case of `CC(=O)Nc1ccc(CN2CCc3c(ncnc3NCC34CC5CC(CC(C5)C3)C4)C2)cc1` [Compound 227] it was 0 to 25%; in that of `Brc1ccccc1CN1CCc2c(ncnc2NCC23CC4CC(CC(C4)C2)C3)C1` [Compound 228], 0 to 25%.
The same measure, in the same setting: in the case of `Fc1ccc(Br)cc1CN1CCc2c(ncnc2NCC23CC4CC(CC(C4)C2)C3)C1` [Compound 229] it was 0 to 25%; in that of `c1nc2c(c(NCC34CC5CC(CC(C5)C3)C4)n1)CCN(CC1CCCC1)C2` [Compound 230], above 75%; in that of `FC(F)(F)Oc1ccc(CN2CCc3c(ncnc3NCC34CC5CC(CC(C5)C3)C4)C2)cc1` [Compound 231], 0 to 25%.
Take `FC(F)Oc1ccc(CN2CCc3c(ncnc3NCC34CC5CC(CC(C5)C3)C4)C2)cc1` [Compound 232]: the inhibition at 0.3 µM was 0 to 25%.
Same read-out and setting: in the case of `Fc1ccc(COc2ccc(CN3CCc4c(ncnc4NCC45CC6CC(CC(C6)C4)C5)C3)cc2)cc1` [Compound 233] it was 0 to 25%; in that of `COc1cc(F)c(CN2CCc3c(ncnc3NCC34CC5CC(CC(C5)C3)C4)C2)cc1OC` [Compound 234], 0 to 25%; in that of `COc1cc(F)c(CN2CCc3c(ncnc3NCC34CC5CC(CC(C5)C3)C4)C2)c(F)c1` [Compound 235], 0 to 25%.
